Key:
Assay in all cases: relative viability (nuclei count vs DMSO), 5 days (fraction); higher = more cells survive
SW 1573 = tested on: SW 1573
Summary of the method: (§1)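 A single step with final 0.05% Triton X-100, 1% formaldehyde and 1 ug/ml Hoechst fixed the cells and stained nuclei 5 days after treatment. Lung cancer cell lines in 1536-well plates had been treated by pin tool the day after seeding with one drug alone or a fixed anchor-drug dose plus five library-drug doses (not always all listed) in √10 steps, and nuclei were counted on 4× images. Relative viability is the ratio of nuclei in treated wells to nuclei in vehicle wells, taken as the median of duplicate plates.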

NCI-H1993 = tested on: NCI-H1993
Summary of the method: as §1

EMC-BAC-2 = tested on: EMC-BAC-2
Summary of the method: as §1

NCI-H2085 = tested on: NCI-H2085
Summary of the method: as §1

NCI-H647 = tested on: NCI-H647
Summary of the method: as §1

SK-LU-1 = tested on: SK-LU-1
Summary of the method: as §1

NCI-H322M = tested on: NCI-H322M
Summary of the method: as §1

BEN = tested on: BEN
Summary of the method: as §1

NCI-H727 = tested on: NCI-H727
Summary of the method: as §1

LXF-289 = tested on: LXF-289
Summary of the method: as §1

NCI-H1650 = tested on: NCI-H1650
Summary of the method: as §1

LCLC-97TM1 = tested on: LCLC-97TM1
Summary of the method: as §1

PC-14 = tested on: PC-14
Summary of the method: as §1

HOP-62 = tested on: HOP-62
Summary of the method: as §1

NCI-H1915 = tested on: NCI-H1915
Summary of the method: as §1

NCI-H2009 = tested on: NCI-H2009
Summary of the method: as §1

NCI-H661 = tested on: NCI-H661
Summary of the method: as §1

H3255 = tested on: H3255
Summary of the method: as §1

NCI-H1563 = tested on: NCI-H1563
Summary of the method: as §1

NCI-H2126 = tested on: NCI-H2126
Summary of the method: as §1

NCI-H2347 = tested on: NCI-H2347
Summary of the method: as §1

NCI-H2342 = tested on: NCI-H2342
Summary of the method: as §1

NCI-H2023 = tested on: NCI-H2023
Summary of the method: as §1

NCI-H358 = tested on: NCI-H358
Summary of the method: as §1

Clc1ccc(Nc2nnc(Cc3ccncc3)c3ccccc23)cc1 [Vatalanib] + COc1cc2c(Oc3ccc(NC(=O)C4(C(=O)Nc5ccc(F)cc5)CC4)cc3F)ccnc2cc1OCCCN1CCOCC1 [Foretinib] (partner 0.25 µM) showed a relative viability (SW 1573; first compound 0.04 µM) of 0.997, a relative viability (SW 1573; first compound 0.1265 µM) of 0.857 and a relative viability (SW 1573; first compound 0.4 µM) of 1.05. The relative viability (SW 1573; first compound 1.265 µM) was 0.929, the relative viability (SW 1573; first compound 4 µM) was 0.9 and the relative viability (NCI-H1993; first compound 0.04 µM) was 0.739. It also gave a relative viability (NCI-H1993; first compound 0.1265 µM) of 0.745, a relative viability (NCI-H1993; first compound 0.4 µM) of 0.806 and a relative viability (NCI-H1993; first compound 1.265 µM) of 0.739. It also gave a relative viability (NCI-H1993; first compound 4 µM) of 0.75, a relative viability (EMC-BAC-2; first compound 0.04 µM) of 0.826 and a relative viability (EMC-BAC-2; first compound 0.1265 µM) of 1.01. For the same compound, the relative viability (EMC-BAC-2; first compound 0.4 µM) was 1.09, the relative viability (EMC-BAC-2; first compound 1.265 µM) was 0.919 and the relative viability (EMC-BAC-2; first compound 4 µM) was 1.02. For the same compound, the relative viability (NCI-H2085; first compound 0.04 µM) was 1.07, the relative viability (NCI-H2085; first compound 0.1265 µM) was 0.879 and the relative viability (NCI-H2085; first compound 0.4 µM) was 0.854. For the same compound, the relative viability (NCI-H2085; first compound 1.265 µM) was 0.996, the relative viability (NCI-H2085; first compound 4 µM) was 0.818 and the relative viability (NCI-H647; first compound 0.04 µM) was 1.12. For the same compound, the relative viability (NCI-H647; first compound 0.1265 µM) was 1.2, the relative viability (NCI-H647; first compound 0.4 µM) was 1.28 and the relative viability (NCI-H647; first compound 1.265 µM) was 1.18. It also gave a relative viability (NCI-H647; first compound 4 µM) of 1.1, a relative viability (SK-LU-1; first compound 0.04 µM) of 0.807 and a relative viability (SK-LU-1; first compound 0.1265 µM) of 0.741. It also gave a relative viability (SK-LU-1; first compound 0.4 µM) of 0.979, a relative viability (SK-LU-1; first compound 1.265 µM) of 0.877 and a relative viability (SK-LU-1; first compound 4 µM) of 0.809. For the same compound, the relative viability (NCI-H322M; first compound 0.04 µM) was 1, the relative viability (NCI-H322M; first compound 0.1265 µM) was 0.974 and the relative viability (NCI-H322M; first compound 0.4 µM) was 1.03. The relative viability (NCI-H322M; first compound 1.265 µM) was 0.878, the relative viability (NCI-H322M; first compound 4 µM) was 0.896 and the relative viability (BEN; first compound 0.04 µM) was 0.705. For the same compound, the relative viability (BEN; first compound 0.1265 µM) was 0.526, the relative viability (BEN; first compound 0.4 µM) was 0.845 and the relative viability (BEN; first compound 1.265 µM) was 0.511. The relative viability (BEN; first compound 4 µM) was 0.696, the relative viability (NCI-H727; first compound 0.04 µM) was 0.901 and the relative viability (NCI-H727; first compound 0.1265 µM) was 0.724. For the same compound, the relative viability (NCI-H727; first compound 0.4 µM) was 0.703, the relative viability (NCI-H727; first compound 1.265 µM) was 0.572 and the relative viability (NCI-H727; first compound 4 µM) was 0.925. The relative viability (LXF-289; first compound 0.04 µM) was 0.97, the relative viability (LXF-289; first compound 0.1265 µM) was 0.966 and the relative viability (LXF-289; first compound 0.4 µM) was 0.98. The relative viability (LXF-289; first compound 1.265 µM) was 0.945, the relative viability (LXF-289; first compound 4 µM) was 0.931 and the relative viability (NCI-H1650; first compound 0.04 µM) was 1.22. The relative viability (NCI-H1650; first compound 0.1265 µM) was 1.05, the relative viability (NCI-H1650; first compound 0.4 µM) was 0.89 and the relative viability (NCI-H1650; first compound 1.265 µM) was 1. The relative viability (NCI-H1650; first compound 4 µM) was 1.27, the relative viability (LCLC-97TM1; first compound 0.04 µM) was 0.975 and the relative viability (LCLC-97TM1; first compound 0.1265 µM) was 0.833. For the same compound, the relative viability (LCLC-97TM1; first compound 0.4 µM) was 1.01, the relative viability (LCLC-97TM1; first compound 1.265 µM) was 0.949 and the relative viability (LCLC-97TM1; first compound 4 µM) was 0.835. For the same compound, the relative viability (PC-14; first compound 0.04 µM) was 0.981, the relative viability (PC-14; first compound 0.1265 µM) was 0.855 and the relative viability (PC-14; first compound 0.4 µM) was 0.85. It also gave a relative viability (PC-14; first compound 1.265 µM) of 0.895, a relative viability (PC-14; first compound 4 µM) of 0.932 and a relative viability (HOP-62; first compound 0.04 µM) of 1.16. For the same compound, the relative viability (HOP-62; first compound 0.1265 µM) was 1.07, the relative viability (HOP-62; first compound 0.4 µM) was 1.13 and the relative viability (HOP-62; first compound 1.265 µM) was 1.01. For the same compound, the relative viability (HOP-62; first compound 4 µM) was 1.12, the relative viability (NCI-H1915; first compound 0.04 µM) was 1.09 and the relative viability (NCI-H1915; first compound 0.1265 µM) was 1.04. The relative viability (NCI-H1915; first compound 0.4 µM) was 1.11, the relative viability (NCI-H1915; first compound 1.265 µM) was 1.05 and the relative viability (NCI-H1915; first compound 4 µM) was 1.13. For the same compound, the relative viability (NCI-H2009; first compound 0.04 µM) was 1.22, the relative viability (NCI-H2009; first compound 0.1265 µM) was 1.14 and the relative viability (NCI-H2009; first compound 0.4 µM) was 1.24. The relative viability (NCI-H2009; first compound 1.265 µM) was 1.2, the relative viability (NCI-H2009; first compound 4 µM) was 1.26 and the relative viability (NCI-H661; first compound 0.04 µM) was 1. It also gave a relative viability (NCI-H661; first compound 0.1265 µM) of 1.04, a relative viability (NCI-H661; first compound 0.4 µM) of 1.07 and a relative viability (NCI-H661; first compound 1.265 µM) of 0.975. For the same compound, the relative viability (NCI-H661; first compound 4 µM) was 0.989, the relative viability (H3255; first compound 0.04 µM) was 0.763 and the relative viability (H3255; first compound 0.1265 µM) was 0.917. It also gave a relative viability (H3255; first compound 0.4 µM) of 0.64, a relative viability (H3255; first compound 1.265 µM) of 0.829 and a relative viability (H3255; first compound 4 µM) of 0.789. It also gave a relative viability (NCI-H1563; first compound 0.04 µM) of 0.92, a relative viability (NCI-H1563; first compound 0.1265 µM) of 0.874 and a relative viability (NCI-H1563; first compound 0.4 µM) of 0.995. The relative viability (NCI-H1563; first compound 1.265 µM) was 0.875, the relative viability (NCI-H1563; first compound 4 µM) was 0.901 and the relative viability (NCI-H2126; first compound 0.04 µM) was 1.15. It also gave a relative viability (NCI-H2126; first compound 0.1265 µM) of 1.23, a relative viability (NCI-H2126; first compound 0.4 µM) of 1.25 and a relative viability (NCI-H2126; first compound 1.265 µM) of 1.1. It also gave a relative viability (NCI-H2126; first compound 4 µM) of 1.12, a relative viability (NCI-H2347; first compound 0.1265 µM) of 0.676 and a relative viability (NCI-H2347; first compound 0.4 µM) of 0.656. It also gave a relative viability (NCI-H2347; first compound 1.265 µM) of 1.05, a relative viability (NCI-H2347; first compound 4 µM) of 0.785 and a relative viability (NCI-H2342; first compound 0.04 µM) of 1.08. The relative viability (NCI-H2342; first compound 0.1265 µM) was 1.03, the relative viability (NCI-H2342; first compound 0.4 µM) was 1.08 and the relative viability (NCI-H2342; first compound 1.265 µM) was 1.16. The relative viability (NCI-H2342; first compound 4 µM) was 1.05, the relative viability (NCI-H2023; first compound 0.04 µM) was 0.881 and the relative viability (NCI-H2023; first compound 0.1265 µM) was 0.974. For the same compound, the relative viability (NCI-H2023; first compound 0.4 µM) was 1.04, the relative viability (NCI-H2023; first compound 1.265 µM) was 0.753 and the relative viability (NCI-H2023; first compound 4 µM) was 1.04. The relative viability (NCI-H358; first compound 0.04 µM) was 1.15, the relative viability (NCI-H358; first compound 0.1265 µM) was 0.568 and the relative viability (NCI-H358; first compound 0.4 µM) was 0.533. For the same compound, the relative viability (NCI-H358; first compound 1.265 µM) was 0.718 and the relative viability (NCI-H358; first compound 4 µM) was 0.621.

From the supplement of paper PMC10307832
